# Measurements from paper PMC4640066 (Nature Communications, 2015).
# Experiments:
# human γ-tubulin [1] = target: T1, human γ-tubulin (Homo sapiens, UniProt P23258); test: Tryptophan-based drug-binding assay, γ-tubulin; settings: for Ratio of Kd[α/β-tubulin]/Kd[γ-tubulin]: selectivity for γ-tubulin over α/β-tubulin; for Kd: tryptophan fluorescence decrease, 1 μM protein, mean±s.d., three independent experiments
# T1 construct: myc (C); 6His (C); made in house; host or cells: Sf21 insect cells (baculovirus)
# T1 sequence (P23258 whole entry): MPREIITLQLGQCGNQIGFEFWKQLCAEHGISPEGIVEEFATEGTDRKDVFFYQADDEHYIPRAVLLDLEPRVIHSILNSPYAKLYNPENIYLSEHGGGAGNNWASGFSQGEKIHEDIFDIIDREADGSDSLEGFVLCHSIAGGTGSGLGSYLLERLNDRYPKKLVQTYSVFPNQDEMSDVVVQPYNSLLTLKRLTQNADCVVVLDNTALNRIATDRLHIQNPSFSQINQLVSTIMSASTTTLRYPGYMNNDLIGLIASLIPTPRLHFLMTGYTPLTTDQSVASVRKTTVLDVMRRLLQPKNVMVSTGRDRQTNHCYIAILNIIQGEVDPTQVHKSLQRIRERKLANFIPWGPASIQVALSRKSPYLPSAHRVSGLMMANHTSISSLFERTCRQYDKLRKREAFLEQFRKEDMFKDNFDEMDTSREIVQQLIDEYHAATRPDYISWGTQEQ
# Method: In brief, 0.7 × 10^6 cells ml^−1 were infected with the γ-tubulin baculovirus. After 48 h, cells were collected by centrifugation at […] for 10 min and flash-frozen in liquid nitrogen and stored at −80 °C. Purification was carried out as described with slight modifications. […] Imidazole (final 10 mM) was added and the lysate was centrifuged again at 192,800g for 30 min at 4 °C. […] Ni-NTA Agarose was then washed twice with wash buffer 1 (lysis buffer containing 25 mM imidazole) and wash buffer 2 (50 mM MES pH 6.6, 500 mM KCl, 5 mM MgCl2, 10% glycerol, 10 μM GTP and 1 mM DTT) containing 25 mM imidazole. γ-Tubulin was eluted with wash buffer 2 containing 200 mM imidazole.
# Monomeric γ-tubulin was prepared using a size exclusion column HiLoad 16/60 Superdex 200 pre-equilibrated with gel filtration buffer (50 mM MES pH 6.6, 500 mM KCl, 5 mM MgCl2, 1 mM EGTA, 10 μM GTP and 1 mM DTT). The peak fractions representing monomeric γ-tubulin were identified by A280 and confirmed using SDS–PAGE. Protein was concentrated using a Vivaspin concentrator (Sartorius) and supplemented with 10% glycerol, following snap-freezing in liquid nitrogen and storage at −80 °C.
# (§1) Gel filtration buffer for γ-tubulin purification (50 mM MES pH 6.6, 500 mM KCl, 5 mM MgCl2, 1 mM EGTA and 1 mM DTT) supplemented with 10% of glycerol was used as an assay buffer. γ-tubulin and α/β-tubulin were diluted in this assay buffer to reach a final protein concentration of 1 μM. A final concentration of 10 μM or 1 mM GTP was added to the samples. Proteins were incubated for 30 min with compounds (final DMSO concentration was 1%; 2% for AG1 and gatastatin). […] Dissociation constants were calculated from fitting curves of decreasing fluorescence (ΔFL) using the GraphPad Prizm software.
# α/β-tubulin = target: T2, α/β-tubulin (Sus scrofa, UniProt P02550+P02554); test: Tryptophan-based drug-binding assay, α/β-tubulin; design: species or system porcine; settings: tryptophan fluorescence decrease; 1 μM protein; mean±s.d., three independent experiments
# T2 construct: α/β-Tubulin was purified from porcine brain; from tissue; host or cells: porcine brain
# T2 sequence (P02554 whole entry): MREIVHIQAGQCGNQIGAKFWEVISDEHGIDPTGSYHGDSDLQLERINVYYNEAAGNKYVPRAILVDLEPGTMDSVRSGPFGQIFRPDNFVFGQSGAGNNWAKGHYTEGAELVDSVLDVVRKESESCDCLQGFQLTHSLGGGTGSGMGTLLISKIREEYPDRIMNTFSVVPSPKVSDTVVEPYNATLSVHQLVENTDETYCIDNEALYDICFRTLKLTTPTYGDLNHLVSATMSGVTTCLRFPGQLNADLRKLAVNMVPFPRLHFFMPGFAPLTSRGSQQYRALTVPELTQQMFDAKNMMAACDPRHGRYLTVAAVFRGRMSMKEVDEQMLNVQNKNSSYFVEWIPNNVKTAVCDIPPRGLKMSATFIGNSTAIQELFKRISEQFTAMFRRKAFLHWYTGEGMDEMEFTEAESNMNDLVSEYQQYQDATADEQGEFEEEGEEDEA
# T2 sequence (P02550 whole entry): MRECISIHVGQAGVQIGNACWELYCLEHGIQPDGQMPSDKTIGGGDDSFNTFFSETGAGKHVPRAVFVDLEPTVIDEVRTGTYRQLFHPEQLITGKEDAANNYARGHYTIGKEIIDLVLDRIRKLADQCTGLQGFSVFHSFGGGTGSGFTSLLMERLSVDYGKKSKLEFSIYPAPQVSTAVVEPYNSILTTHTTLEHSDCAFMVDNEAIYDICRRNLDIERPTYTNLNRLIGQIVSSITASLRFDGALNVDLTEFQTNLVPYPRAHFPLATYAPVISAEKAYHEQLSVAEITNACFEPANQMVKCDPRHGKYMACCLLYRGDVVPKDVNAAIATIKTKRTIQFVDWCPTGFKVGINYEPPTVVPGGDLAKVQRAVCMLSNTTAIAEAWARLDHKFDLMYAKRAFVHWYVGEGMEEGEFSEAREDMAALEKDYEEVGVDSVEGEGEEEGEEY
# Method: γ-TuSC was purified as described. Briefly, γ-TuSC was expressed in HighFive cells and purified by sequential steps of Ni-NTA (Macherei-Nagel) purification, MonoQ column purification (GE Healthcare) and size exclusion (Superdex 200 column, GE Healthcare)[14]. α/β-Tubulin was purified from porcine brain through four cycles of polymerization and depolymerization using 1 M PIPES buffer (1 M PIPES-KOH, 1 mM EGTA, 1 mM MgCl2, pH 6.8) for effective removal of MT-associated proteins.
# as §1
# [2] = tested on: γ-tubulin-dependent, RanQ69L-stimulated aster formation; test: RanQ69L-stimulated aster formation in M-phase Xenopus egg extracts; type: biochemical
# Method: (§2) Cytostatic factor (CSF)-arrested M phase Xenopus egg extracts (CSF extracts) were prepared. Briefly, unfertilized eggs were crushed by 10,700g centrifugation for 20 min. M phase extracts were mixed with 0.5 μM Cy3-labelled α/β-tubulin and various concentrations of compounds. After incubation for 30 min on ice, 15 μM RanQ69L, 200 sperm nuclei per μl or 5% DMSO were added and incubated for 30 min on ice. After incubation for 20 min at 20 °C (for the samples with sperm nuclei, the incubation time was 30 min), 1.5 μl sample was fixed with 1.5 μl fix solution (0.3 volume of 37% formaldehyde, 0.6 volume of 80% glycerol and 0.1 vol of 10 × MMR solution (50 mM HEPES, pH 7.8, 1 M NaCl, 20 mM KCl, 10 mM MgCl2, 20 mM CaCl2 and 1 mM EDTA)), followed by the squash fix.
# (§3) Images were acquired using a microscope (Axiovert 200 M; Carl Zeiss Inc.) equipped with a plan-Apochromat × 63 NA 1.3 oil objective lens (Carl Zeiss Inc.), a Cy3 emission filter and a Cascade:1 K (Photometrics Inc.) camera, and the AxioVision software (Carl Zeiss Inc.). The aster size and fluorescence intensity were quantified using a macro written in MATLAB[41].
# HeLa cells = test: Analysis of interphase MT network; type: cell-based, human; settings: 30 μM, 2.5 h
# Method: HeLa cells were cultured in DMEM containing 10% FBS in a humidified atmosphere containing 5% CO2. After treatment with each compound for 2.5 h (interphase MT network) or 5 h (mitotic spindle), the cells were immediately fixed with cold MeOH (−20 °C). After blocking with PBS containing 0.5% bovine serum albumin, cells were incubated with anti-α-tubulin antibodies (1:500 dilution, Santa Cruz, Cat# sc-32293) to observe interphase cells, or with anti-BubR1 (1:250 dilution, BD Bioscience, Cat# 612502) and anti-α-tubulin (1:250 dilution, MBL, Cat# PM054) antibodies to observe mitotic spindle. After staining with Alexa^488-conjugated anti-mouse IgG (1:2,000 dilution, Invitrogen, Cat#A11001) and Alexa568-conjugated anti-rabbit IgG (1:2000 dilution, Invitrogen, Cat#A11011), cells were washed four times with PBS and mounted with PBS containing 0.1 μg ml^−1 DAPI. MTs and BubR1 signals were observed under a Leica LAS AF 6000 fluorescence microscope (Leica Microsystems) or an LSM 700 laser-scanning confocal microscope (Zeiss).
# [3] = tested on: DMSO-stimulated, γ-tubulin-independent aster formation; test: DMSO-stimulated aster formation in M-phase Xenopus egg extracts; type: biochemical; settings: M-phase-arrested Xenopus egg extracts, 5% DMSO, 20 min at 20 °C
# Method: as §2, §3
# [4] = tested on: HeLa cells expressing EB3-EGFP (interphase); test: EB3-EGFP signal tracking, interphase cells; type: cell-based, human; settings: 15 min; for Track length / Track lifetime / Velocity: interphase HeLa EB3-EGFP, mean±s.d.; for Track numbers: interphase, from a 144-μm^2 area inside the cell
# Method: A HeLa ‘Kyoto' cell line stably expressing EB3-EGFP (a kind gift from Dr J. Ellenberg) was maintained in DMEM+GlutaMAX (Gibco) supplemented with 10% FBS, 2 mM L-glutamine, 100 U ml^−1 penicillin, 100 μg ml^−1 streptomycin, 1 mM sodium pyruvate and 0.5 mg ml^−1 G418. Cells were seeded into eight-well Lab-Tek chambers (Nunc, Rochester, NY) for 24-h prior imaging. For imaging, the medium was exchanged to Live Cell Imaging Solution (Molecular Probes Life Technologies) supplemented as described above and containing various concentrations of AG1 or gatastatin. Interphase cells were incubated with drugs for 15 min and mitotic cells were treated as described in Fig. 4c. Then, EB3 tracks were observed under a PerkinElmer UltraVIEW ERS Spinning Disk microscope (Software: UltraVIEW ERS Imaging Suite) equipped with a Plan-APOCHROMAT × 100/1.4 Oil DIC objective, a Confocal Scanner Unit (Yokogawa CSU 22), a Hamamatsu EM CCD camera (C9100-50) and a 488-nm Argon laser at 37 °C, and time-lapse sequences were performed for 60 s with a 400-ms interval. Automatic analysis of EB3-EGFP signal tracks was performed with ImageJ (http://imagej.nih.gov/ij/) and Matlab (Mathworks) as described.
# human γ-tubulin [5] = target: T1, human γ-tubulin; test: Inhibition of GTP binding of γ-tubulin (α-[32P]-GTP crosslinking assay); settings: 60 μM compound; 70 nM γ-tubulin, 100 nM α-[32P]-GTP; mean±s.d.
# Method: For analysis of the effect of drugs on GTP binding of γ-tubulin, 70 nM of purified human γ-tubulin in GTP-binding buffer (50 mM MES, 5 mM MgCl2, 1 mM EGTA, pH 6.6) was incubated with or without compounds for 15 min at 20 °C. A final concentration of 100 nM of α-[^32P]-GTP was added and incubated at 20 °C for 30 min. After incubation, bound α-[^32P]-GTP was crosslinked to γ-tubulin for 60 s by illumination with a ultraviolet lamp using CL-1000 Ultraviolet Crosslinker. Protein with the crosslinked GTP was separated from unbound nucleotide by TCA precipitation and SDS–PAGE, and ^32P labelling was measured using a Typhoon FLA-7000 (General Electronic Company). Band intensities were quantified with the ImageJ software.
# human γ-tubulin [6] = target: T1, human γ-tubulin; test: GTP binding to recombinant γ-tubulin (UV crosslinking); settings: 70 nM γ-tubulin, α-[32P]-GTP
# Method: Supplementary Figure 2. Binding of GTP and GCP4 to recombinant human γ-tubulin
# (a) GTP binding to γ-tubulin. 70 nM of γ-tubulin was mixed with indicated concentrations of α-[32P]-GTP, and cross-linked by UV irradiation. After separation of crosslinked γ-tubulin and unbound α-[32P]-GTP, radioactivity was detected with a phosphorimager. Band intensities were quantified with ImageJ. The Kd (121.1 nM) was calculated using GraphPad Prizm software. (b) Purified human γ-tubulin and GCP4 interaction was detected by gel filtration and SDS-PAGE. Equal volumes of γ-tubulin (1.5 µM) and GCP4 (4 µM), γ-tubulin (1.5 µM) and buffer, or GCP4 (4 µM) and buffer were mixed and incubated for 30 min at 20 °C. Proteins were separated by size exclusion column Superdex 200 10/300 GL pre-equilibrated with gel filtration buffer (50 mM MES pH6.6, 500 mM KCl, 5 mM MgSO4, 1 mM EGTA, 1 mM DTT, 10 µM GTP).
# γ-Tubulin alone and GCP4 alone were eluted at retention times of 27 min and 24 min, respectively. The […]
# GCP4 and γ-tubulin in these fractions were confirmed by SDS-PAGE and silver staining.
# (1 picture or pasted object on this page, not shown here)
smiles,measurement,setting,value
CC(C)(C)c1[nH]cnc1/C=c1\[nH]c(=O)/c(=C/c2ccccc2)[nH]c1=O [Plinabulin],Ratio of Kd[α/β-tubulin]/Kd[γ-tubulin],human γ-tubulin [1],0.01
same,Ratio of Kd[α/β-tubulin]/Kd[γ-tubulin],human γ-tubulin [1]; listed as plinabulin,< 0.05
same,Kd,human γ-tubulin [1],83.3 ± 18.5 µM
same,Kd,α/β-tubulin,0.5 ± 0.1 µM
COC(=O)Nc1nc2ccc(C(=O)c3cccs3)cc2[nH]1 [Nocodazole],Ratio of Kd[α/β-tubulin]/Kd[γ-tubulin],human γ-tubulin [1],0.03
same,Kd,human γ-tubulin [1],54.9 ± 19 µM
same,Kd,α/β-tubulin,1.8 ± 0.6 µM
COc1ccc(/C=c2\[nH]c(=O)/c(=C/c3cccc(C(=O)c4ccccc4)c3)[nH]c2=O)cc1 [KPU-406],Ratio of Kd[α/β-tubulin]/Kd[γ-tubulin],human γ-tubulin [1],0.57
same,Kd,human γ-tubulin [1],46.1 ± 27.6 µM
same,Kd,α/β-tubulin,26.3 ± 2 µM
"COc1cc2occ(-c3cc(OC)c4c(c3OC)OCO4)c(=O)c2cc1OC [AG1, glaziovianin A, reference compound]",IC50,"[2]; M-phase-arrested Xenopus egg extracts, 15 μM RanQ69L, 20 min at 20 °C",0.44 µM
same,IC50[DMSO-aster]/IC50[RanQ69L-aster],[2]; ratio of IC50 values,3.14
same,Effect on interphase MT network,HeLa cells,caused partial depolymerization of interphase MT network
same,Ratio of Kd[α/β-tubulin]/Kd[γ-tubulin],human γ-tubulin [1],0.61
same,Kd,human γ-tubulin [1],85.3 ± 22.8 µM
same,IC50,[3],1.37 µM
same,Track length,[4]; 1 μM,0.73±0.09 μm
same,Track lifetime,[4]; 1 μM,3.30 ± 0.57 s
same,Velocity,[4]; 1 μM,9.59±1.01 μm min^−1
same,Track numbers,[4]; 1 μM,106±30
same,Track length,[4]; 3 μM,0.43±0.07 μm
same,Track lifetime,[4]; 3 μM,2.20 ± 0.67 s
same,Velocity,[4]; 3 μM,7.33±1.23 μm min^−1
same,Track numbers,[4]; 3 μM,110±42
same,Kd,α/β-tubulin,51.9 ± 36.4 µM
same,GTP binding (control %),human γ-tubulin [5],93.7±11.7%
Nc1nc2c(ncn2[C@@H]2O[C@H](COP(=O)(O)OP(=O)(O)OP(=O)(O)O)[C@@H](O)[C@H]2O)c(=O)[nH]1 [GTP],Kd,human γ-tubulin [6],0.121 µM
